The target of one series is T1, H2-receptor (Cavia porcellus, UniProt P47747).
T1 construct: Technique for the making of dose-response curves in isolated organs; from tissue
As to the kind of experiment: H2 agonistic activity (pD2-values), method of J. M. van Rossum, cumulative dose-response curves in isolated organs. The text has this: Technique for the making of dose-response curves in isolated organs and the evaluation of drug parameters, Arch. Intern. Pharmacodyn. Therap.

Series [1] addresses T2, isolated guineapig's ileum (Cavia porcellus).
T2 construct: isolated guineapig's ileum; from tissue; host or cells: isolated guinea pig ileum
Description: calcium antagonistic activity on isolated guineapig's ileum stimulated with barium chloride. To be noted: read-out: pA2-value (BaCl2) (converted).

The subject of series [2] is arterial resistance, coronary dilatation, activity of the heart. To be noted: in words, background, cited from earlier work.

T1 sequence (P47747 whole entry): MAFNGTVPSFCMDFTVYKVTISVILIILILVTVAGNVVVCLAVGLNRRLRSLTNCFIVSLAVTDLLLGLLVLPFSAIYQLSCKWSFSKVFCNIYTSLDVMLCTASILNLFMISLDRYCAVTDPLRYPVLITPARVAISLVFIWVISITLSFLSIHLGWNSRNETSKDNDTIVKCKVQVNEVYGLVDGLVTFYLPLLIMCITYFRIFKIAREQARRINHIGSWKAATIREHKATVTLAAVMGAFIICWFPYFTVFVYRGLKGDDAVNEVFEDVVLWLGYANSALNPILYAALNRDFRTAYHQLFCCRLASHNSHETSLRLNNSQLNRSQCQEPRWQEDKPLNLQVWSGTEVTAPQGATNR
T2 sequence (O35505 whole entry): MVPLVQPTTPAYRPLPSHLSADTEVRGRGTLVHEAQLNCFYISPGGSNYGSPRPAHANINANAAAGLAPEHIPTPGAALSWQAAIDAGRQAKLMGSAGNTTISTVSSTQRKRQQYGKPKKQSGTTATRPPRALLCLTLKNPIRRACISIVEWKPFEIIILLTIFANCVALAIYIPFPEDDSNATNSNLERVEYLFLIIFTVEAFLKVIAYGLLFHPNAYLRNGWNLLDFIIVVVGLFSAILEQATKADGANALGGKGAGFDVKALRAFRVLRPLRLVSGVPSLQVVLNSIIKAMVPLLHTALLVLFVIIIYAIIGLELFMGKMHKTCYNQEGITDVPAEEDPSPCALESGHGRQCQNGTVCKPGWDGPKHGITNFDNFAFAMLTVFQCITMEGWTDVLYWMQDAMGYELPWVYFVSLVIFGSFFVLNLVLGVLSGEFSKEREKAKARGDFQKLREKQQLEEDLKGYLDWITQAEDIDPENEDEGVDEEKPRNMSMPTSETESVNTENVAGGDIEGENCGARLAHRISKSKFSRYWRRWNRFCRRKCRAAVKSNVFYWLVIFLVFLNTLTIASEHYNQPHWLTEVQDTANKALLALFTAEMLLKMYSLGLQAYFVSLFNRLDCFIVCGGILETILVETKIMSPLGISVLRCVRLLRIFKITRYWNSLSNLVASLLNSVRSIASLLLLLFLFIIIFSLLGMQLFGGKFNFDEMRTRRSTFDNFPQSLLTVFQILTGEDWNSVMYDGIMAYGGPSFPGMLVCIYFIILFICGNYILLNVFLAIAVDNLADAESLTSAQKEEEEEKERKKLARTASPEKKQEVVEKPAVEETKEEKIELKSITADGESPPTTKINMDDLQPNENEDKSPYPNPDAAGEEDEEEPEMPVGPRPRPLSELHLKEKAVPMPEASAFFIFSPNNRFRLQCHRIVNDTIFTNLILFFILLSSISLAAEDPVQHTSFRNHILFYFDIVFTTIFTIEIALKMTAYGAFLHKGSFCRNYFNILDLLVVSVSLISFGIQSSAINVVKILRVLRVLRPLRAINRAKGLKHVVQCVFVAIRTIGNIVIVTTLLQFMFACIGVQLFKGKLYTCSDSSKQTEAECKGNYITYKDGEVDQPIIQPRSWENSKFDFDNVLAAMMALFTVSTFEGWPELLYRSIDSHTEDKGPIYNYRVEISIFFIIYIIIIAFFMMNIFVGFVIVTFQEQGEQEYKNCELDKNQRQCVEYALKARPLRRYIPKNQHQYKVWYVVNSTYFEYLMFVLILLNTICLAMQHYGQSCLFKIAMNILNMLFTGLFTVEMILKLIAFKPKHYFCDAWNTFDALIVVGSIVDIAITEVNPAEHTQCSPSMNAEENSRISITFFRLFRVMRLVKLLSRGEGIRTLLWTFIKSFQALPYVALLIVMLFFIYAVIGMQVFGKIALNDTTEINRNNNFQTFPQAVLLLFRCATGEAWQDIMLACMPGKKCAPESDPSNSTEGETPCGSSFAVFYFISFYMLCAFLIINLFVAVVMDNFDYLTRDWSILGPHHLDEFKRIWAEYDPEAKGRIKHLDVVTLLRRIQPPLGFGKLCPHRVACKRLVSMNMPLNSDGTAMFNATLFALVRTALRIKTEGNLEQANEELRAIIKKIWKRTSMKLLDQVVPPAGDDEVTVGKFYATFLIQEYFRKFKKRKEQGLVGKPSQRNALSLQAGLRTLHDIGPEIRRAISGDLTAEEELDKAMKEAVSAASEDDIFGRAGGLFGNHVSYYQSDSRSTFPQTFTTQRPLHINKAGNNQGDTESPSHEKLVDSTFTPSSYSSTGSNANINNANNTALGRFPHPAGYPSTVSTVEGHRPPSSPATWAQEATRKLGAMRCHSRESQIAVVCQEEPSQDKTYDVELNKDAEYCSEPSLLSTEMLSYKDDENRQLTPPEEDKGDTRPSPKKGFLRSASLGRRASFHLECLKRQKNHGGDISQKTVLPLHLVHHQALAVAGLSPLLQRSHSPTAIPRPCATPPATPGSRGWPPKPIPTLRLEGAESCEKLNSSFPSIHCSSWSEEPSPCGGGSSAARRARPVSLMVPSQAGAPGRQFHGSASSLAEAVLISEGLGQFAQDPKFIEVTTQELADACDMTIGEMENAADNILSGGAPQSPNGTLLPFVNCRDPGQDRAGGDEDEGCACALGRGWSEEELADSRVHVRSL

The EC50 is the midpoint of the concentration-response curve. A lower EC50 goes with greater potency. Compound `Cc1[nH]cnc1CSCCNC(=N)NCCCc1c[nH]cn1` [Impromidine, reference compound] gave an EC50 on H2-receptor of 0.0214 µM.

As to `COC(=O)C1=C(C)NC(C)=C(C(=O)OCCNC(=N)NCCCc2c[nH]cn2)C1c1cccc(Cl)c1Cl` (stereo not shown) [Example 8, N^1-[2-[1,4-Dihydro-2,6-dimethyl-3-methoxycarbonyl-4-(2,3-dichlorophenyl)-pyridine-5-carboxy]ethyl]-N^2-[3-(1H-imidazol-4-yl)propyl]-guanidine hydriodide], the Kb in series [1] is 0.0302 µM. This compound showed an EC50 at H2-receptor of 0.331 µM.

For the compound `COC(=O)C1=C(C)NC(C)=C(C(=O)OCCNC(=N)NCCCc2c[nH]cn2)C1c1ccccc1[N+](=O)[O-]` (stereo not shown) [Example 1, N^1-[2-[1,4-Dihydro-2,6-dimethyl-3-methoxycarbonyl-4-(2-nitrophenyl)-pyridine-5-carboxy]ethyl]-N^2-[3-(1H-imidazol-4-yl)propyl]-guanidine-hydriodide], the Kb in series [1] was 0.038 µM. This compound also gave an EC50 on H2-receptor of 0.0479 µM.

`COC(=O)C1=C(C)NC(C)=C(C(=O)OC)C1c1ccccc1[N+](=O)[O-]` [Nifedipine, 1,4-dihydro-2,6-dimethyl-4-(2-nitrophenyl)-3,5-pyridine carboxylic acid dimethyl ester]: in series [2], the arterial resistance entry is “lowers the arterial resistance” and the coronary dilatory effect entry was “very marked coronary dilatory effect”. Further, in series [2] (therapeutic doses), the “inhibition of the activity of the heart” value is “without inhibiting the activity of the heart”.

`COC(=O)C1=C(C)NC(C)=C(C(=O)OCCCCCCNC(=N)NCCCc2c[nH]cn2)C1c1cccc([N+](=O)[O-])c1` (stereo not shown) [Example 7, N^1-[6[1,4-dihydro-2,6-dimethyl-3-methoxycarbonyl-4-(3-nitrophenyl)-pyridine-5-carboxy]hexyl]-N^2 [3-(1H-imidazol-4-yl)propyl]-guanidine hydriodide]: in series [1], the Kb is 0.11 µM. Moreover, at H2-receptor, the response was half-maximal at 0.0389 µM (EC50).
